The values below come from patent US9902752B2, “5-fluorouracil derivatives” (B. Braun Melsungen AG, priority 2012, dated 2018).

Data set [1] is described as follows: Acidic stability (hydrolysis) of the O-2′,3′-ketal group. It is filed as physicochemical. The note with it: 1N aqueous HCl/MeCN 1:1 (v/v), RP-18 HPLC, calculated graphically; read-out: half-life under acidic conditions. Here is the method:
Both, the acidic hydrolysis of the O-2′,3′-ketal moiety of the ester 28a as well as the chitosanase-catalyzed degradation of chitosan foil-bound 5-fluorouridine was measured. Acidic stability was determined by incubating compound 28a (2 mg) in 1N aqueous HCl/MeCN 1:1 (v/v), neutralization by Et3N and subsequent RP-18 HPLC analysis as described above (FIG. 12).
The faster migrating zone contains always pure 5-fluorouridine, the slower migrating zone the residual ketal 28a. The half-life value was calculated graphically from a plot of the peak integral of both, the residual ketals and 5-fluorouridine vs. reaction time (FIG. 13). Upon acidic hydrolysis only the nucleoside and no 5-fluorouracil were formed.

Data set [2] deals with HT-29 (human colon carcinoma) cell line. In words: Viability/survival of HT-29 cells (PrestoBlue). It is filed as cell-based. Conditions: HT-29, 10-80 μM, 24, 48 or 72 h; vs comparative compounds, 5-fluorouridine and 5-fluorouracil. The method, then:
In vitro experiments were performed using HT-29 (human colon carcinoma) cell line (DSMZ, GmbH, Braunschweig, Germany). The cells were cultured in 90% RPMI 1640 supplemented with 10% fetal bovine serum (FBS), 100 U/ml penicillin, 0.1 mg/ml streptomycin. Cells were maintained at 37° C. in a humidified atmosphere of 5% CO2 and 95% air; the medium was changed every 48 h.
1×10^4 human HT-29 in 100 μl medium/well were seeded in 96-well plates (BD Falcon™, Becton Dickinson GmbH, Heidelberg, Germany). After 24 h, the medium was changed and different concentrations of 5-fluorouracil, 5-fluorouridin and 5-fluorouridin derivative molecules (10, 20, 40 or 80 μM) were tested. After 24, 48 or 72 h incubation, viability/survival was measured using PrestoBlue™ reagent (Invitrogen-Life Technologies GmbH, Darmstadt, Germany). PrestoBlue™ reagent is more sensible than alamarBlue®, which is a redox indicator of enzyme activity widely used in whole organism screening for viability/cytotoxicity (1-6). PrestoBlue™ was directly added to the cells into the culture medium at a final concentration of 10%. Thereafter the plates were returned to the incubator. 30 min, 1 h, 2 h, 3 h and 4 h after addition of PrestoBlue™ the optical density (OD) was measured at 570 nm and 600 nm (as reference) with a SUNRISE ELISA-reader (Tecan, Salzburg, Austria). […]

What is called half-life is the time needed for the level to fall by half in the phase considered.

For `CCOC(=O)CCC1(C)OC2C(O1)[C@@H](CO)O[C@H]2n1cc(F)c(=O)[nH]c1=O` (some centres unmarked) [Compound 28a], the half-life in data set [1] is around 5 h.

For the molecule `CC(C)=CCC/C(C)=C/CC/C(C)=C/Cn1c(=O)c(F)cn([C@@H]2O[C@H](CO)C3OC4(CCCCCCCCCCC4)OC32)c1=O` (some centres unmarked) [Compound 31a, 2′,3′-O-Cyclododecane-1,1-diyl-5-fluoro-3-[(2E,6E)-3,7,11-trimethyldodeca-2,6,10-trien-1-yl]uridine], the “activity against carcinoma cells” value in data set [2] was “significant higher activity”.
